In test [1] the target is T1, serotonin (5-HT) transporter (Rattus norvegicus, UniProt P31652).
T1 construct: from tissue; host or cells: rat frontal cortex
Nature of the test: displacement of [3H]paroxetine binding to 5-HT transporter. The following applies: for 5-HT/DA potency ratio: selectivity for 5-HT over DA transporter; for 5-HT/NE potency ratio: selectivity for 5-HT over NE transporter. For orientation: Displacement assays read how much labelled ligand stays bound in the presence of the test substance.

The target of test [2] is T2, norepinephrine (NE) transporter (Rattus norvegicus, UniProt Q63380).
T2 construct: rat brain membranes; from tissue
T2 sequence (Q63380 1-617): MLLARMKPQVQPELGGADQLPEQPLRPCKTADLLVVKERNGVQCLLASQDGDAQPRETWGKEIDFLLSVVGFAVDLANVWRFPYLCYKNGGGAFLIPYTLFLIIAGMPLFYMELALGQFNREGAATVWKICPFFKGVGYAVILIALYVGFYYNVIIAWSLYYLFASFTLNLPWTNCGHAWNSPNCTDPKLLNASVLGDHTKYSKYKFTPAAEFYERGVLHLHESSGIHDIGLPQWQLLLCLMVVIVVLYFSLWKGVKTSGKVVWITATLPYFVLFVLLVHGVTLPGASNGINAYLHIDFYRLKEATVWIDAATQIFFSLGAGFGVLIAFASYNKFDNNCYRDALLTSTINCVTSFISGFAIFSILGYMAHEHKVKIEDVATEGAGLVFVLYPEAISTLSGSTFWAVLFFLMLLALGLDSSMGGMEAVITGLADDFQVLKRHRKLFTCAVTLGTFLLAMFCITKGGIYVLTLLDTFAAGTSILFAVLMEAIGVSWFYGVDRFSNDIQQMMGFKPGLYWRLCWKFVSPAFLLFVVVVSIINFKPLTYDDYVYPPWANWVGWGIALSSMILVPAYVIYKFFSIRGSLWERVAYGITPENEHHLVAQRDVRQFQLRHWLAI
Briefly: displacement of [3H]nisoxetine binding to NE transporter. The following applies: rat brain membranes.

Test [3] addresses T3, dopamine (DA) transporter (Rattus norvegicus, UniProt P23977).
T3 construct: was used to label dopamine transporters in rat striatal membranes; from tissue; host or cells: rat striatum (membranes)
Briefly: displacement of [125I]RTI-55 binding to dopamine transporter. The note with it: [125I]RTI-55, rat striatal membranes.

For test [4], the target named is T1, serotonin (5-HT) transporter. The following applies: earlier tropanes (U.S. Ser. No. 08/589,820), 5-HT vs dopamine transporter; cited from earlier work.
[5] abbreviates: [3H]paroxetine, rat frontal cortex.

Data on 15 compounds can be found in patent publication US6013242A, “Tropane derivatives with selective binding to the serotonin reuptake transporters for treatment of mental illness and as intermediates in the formation of imaging diagnostic agents for depression” (Wake Forest University, priority 1998, dated 2000).

Read-outs that look alike come from different tables or passages of the source.

T1 sequence (P31652 whole entry): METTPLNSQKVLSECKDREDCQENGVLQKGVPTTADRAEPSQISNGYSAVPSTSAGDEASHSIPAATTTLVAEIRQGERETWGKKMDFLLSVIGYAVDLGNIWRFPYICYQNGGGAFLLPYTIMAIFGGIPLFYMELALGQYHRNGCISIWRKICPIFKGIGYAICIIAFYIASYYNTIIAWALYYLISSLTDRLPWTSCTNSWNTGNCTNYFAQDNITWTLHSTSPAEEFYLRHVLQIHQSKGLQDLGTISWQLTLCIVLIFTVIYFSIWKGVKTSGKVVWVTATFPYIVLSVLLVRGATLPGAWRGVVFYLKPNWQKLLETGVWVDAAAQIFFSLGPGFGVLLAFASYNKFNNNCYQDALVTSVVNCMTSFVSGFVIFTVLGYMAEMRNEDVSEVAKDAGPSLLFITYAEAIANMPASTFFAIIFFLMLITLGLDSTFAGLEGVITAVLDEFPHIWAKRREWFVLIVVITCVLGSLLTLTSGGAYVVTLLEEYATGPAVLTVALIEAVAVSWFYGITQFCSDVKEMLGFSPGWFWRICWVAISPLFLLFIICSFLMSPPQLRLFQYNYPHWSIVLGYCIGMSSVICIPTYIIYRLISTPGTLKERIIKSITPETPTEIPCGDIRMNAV
T3 sequence (P23977 whole entry): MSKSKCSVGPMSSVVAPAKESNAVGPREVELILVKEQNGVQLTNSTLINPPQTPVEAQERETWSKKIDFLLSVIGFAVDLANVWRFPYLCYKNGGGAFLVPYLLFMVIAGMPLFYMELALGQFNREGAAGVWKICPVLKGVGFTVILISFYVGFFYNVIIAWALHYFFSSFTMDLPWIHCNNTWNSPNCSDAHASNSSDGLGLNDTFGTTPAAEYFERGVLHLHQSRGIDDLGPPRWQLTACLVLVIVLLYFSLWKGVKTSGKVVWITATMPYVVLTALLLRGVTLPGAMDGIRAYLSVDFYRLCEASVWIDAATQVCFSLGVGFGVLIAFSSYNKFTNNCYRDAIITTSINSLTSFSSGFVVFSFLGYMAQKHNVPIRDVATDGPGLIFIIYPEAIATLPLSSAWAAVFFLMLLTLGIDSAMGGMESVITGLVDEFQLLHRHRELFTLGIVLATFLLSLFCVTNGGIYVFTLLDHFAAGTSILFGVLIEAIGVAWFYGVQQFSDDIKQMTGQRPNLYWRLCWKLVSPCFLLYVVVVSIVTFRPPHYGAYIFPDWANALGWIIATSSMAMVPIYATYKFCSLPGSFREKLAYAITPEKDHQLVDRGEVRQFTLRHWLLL

As usually defined, the Ki is the equilibrium dissociation constant of an inhibitor or competing ligand from its target. A low value points to a stronger hold on the target. As usually defined, the IC50 is the concentration needed to halve the response being measured. A lower IC50 goes with higher potency. As for `C=C(C)c1ccc([C@H]2C[C@@H]3CC[C@H]([C@H]2C(=O)CC)N3C)cc1` (relative stereo) [Example 1], in test [1], affinity was put at a Ki of 0.82 ± 0.38 nM, the 5-HT/DA potency ratio is listed as 8.8 and the 5-HT/NE potency ratio came to 970. Also, the Ki in test [2] was determined as 794 ± 110 nM. Also, the half-inhibitory concentration (IC50) in test [3] came to 7.2 ± 2.1 nM.
Take `C=C(C)c1ccc([C@H]2C[C@@H]3CC[C@@H](N3)[C@H]2C(=O)CC)cc1` (relative stereo) [Example 2]: in test [1], the affinity corresponds to a Ki of 0.11 ± 0.02 nM, the 5-HT/DA potency ratio is listed as 150 and the 5-HT/NE potency ratio is reported as 850. Moreover, in test [2], the affinity, expressed as Ki, was 94 ± 18 nM. The compound further showed an IC50 in test [3] of 16 ± 4.9 nM.
As for `CCC(=O)[C@H]1[C@@H](c2ccc(-c3cccn3C)cc2)C[C@@H]2CC[C@H]1N2C` (relative stereo) [Example 3, 8-Methyl-2β-propanoyl-3β-[4-(N-methyl-2-pyrrolyl)phenyl]-8-azabicyclo[3,2,1]octane], in test [1] (setting [5]), affinity was put at a Ki of 25.6 ± 4.1 nM. In test [1], the 5-HT/DA potency ratio was determined as 24 and the 5-HT/NE potency ratio was > 15,000. In test [2], this compound came in with an inhibitory constant (Ki) of over 10000 nM. For the same compound, the 50% inhibitory concentration (IC50) in test [3] is 703 ± 222 nM.
In turn, `CCC(=O)[C@H]1[C@@H](c2ccc(-c3cccn3C)cc2)C[C@@H]2CC[C@H]1N2` (relative stereo) [Example 4, 2.beta .-Propanoyl-3β-[4-(N-methyl-2-pyrrolyl)phenyl]-8-azabicyclo[3.2.1]octane] showed a Ki in test [1] (setting [5]) of 1.05 ± 0.2 nM. In test [1], the 5-HT/DA potency ratio is 590 and the 5-HT/NE potency ratio is listed as > 25,000. The compound further showed a Ki in test [2] of over 10000 nM. Also, in test [3], the half-maximal inhibitory concentration (IC50) came out at 614 ± 98 nM.
The matching figures for `CCC(=O)[C@H]1[C@@H](c2ccc(C=C(C)C)cc2)C[C@@H]2CC[C@H]1N2C` (relative stereo) [Example 5, 8-Methyl-2β-Propanoyl-3β-[4-(2-methylpropenyl)phenyl]-8-azabicyclo[3.2.1]octane]: 9.22 ± 2.4 nM, 6, 448, 4130 ± 785 nM and 51.3 ± 15.5 nM.
With `CCC(=O)[C@H]1[C@@H](c2ccc(C=C(C)C)cc2)C[C@@H]2CC[C@H]1N2` (relative stereo) [Example 6, 2.beta .-Propanoyl-3β-[4-(2-methylpropenyl)phenyl]-8-azabicyclo[3.2.1]octanem], in test [1], the inhibition constant (Ki) is 0.404 ± 0.1 nM, the 5-HT/DA potency ratio turned out to be 240 and the 5-HT/NE potency ratio was 3097. Further, in test [2], the Ki turned out to be 1250 ± 124 nM. The compound further displayed a half-inhibitory concentration (IC50) in test [3] of 96.3 ± 17.1 nM.
The matching figures for `CCC(=O)[C@H]1[C@@H](c2ccc(/C=C/I)cc2)C[C@@H]2CC[C@H]1N2` (relative stereo) [Example 11, (E)-2β-Propanoyl-3β-[4-(2-iodoethenyl)phenyl]-8-azab icyclo[3.2.1]octane]: 0.619 ± 0.078 nM, 83, 80, 49.7 ± 10.6 nM and 51.3 ± 5.6 nM.
For `CCC(=O)[C@H]1[C@@H](c2ccc(/C=C(\C)I)cc2)C[C@@H]2CC[C@H]1N2` (relative stereo) [Example 12, (E)-2β-Propanoyl-3. beta.-[4-(2-iodopropenyl)phenyl]-8-azabicyclo[3.2.1]octane], in test [1], the Ki came out at 0.566 ± 0.027 nM, the 5-HT/DA potency ratio worked out at 708 and the 5-HT/NE potency ratio came out at 645. This compound displayed a Ki in test [2] of 365 ± 118 nM. Also, in test [3], the IC50 was 401 ± 73 nM.
Turning to `CCC(=O)[C@H]1[C@@H](c2ccc(/C=C(/C)I)cc2)C[C@@H]2CC[C@H]1N2` (relative stereo) [Example 13, (Z)-2β-Pr opanoyl-3β-[4-(2-iodopropenyl)phenyl]-8-azabicyclo[3.2.1]octane], in test [1], the Ki amounted to 0.131 ± 0.03 nM, the 5-HT/DA potency ratio stood at 507 and the 5-HT/NE potency ratio is given as 509. The compound also came in with an inhibitory constant (Ki) in test [2] of 66.7 ± 17.1 nM. For the same compound, in test [3], the IC50 came out at 66.5 ± 11.1 nM.
`CCC(=O)C1C(c2ccc3ccccc3c2)CC2CCC1N2C` (stereo not shown) [2-naphthyl derivative]: the “transporter selectivity (in words)” value in test [4] is on record as “unselective”.
Regarding `C=C(C)c1ccc(C2CC3CCC(N3)C2C(=O)CC)cc1` (stereo not shown) [4-(1-methylethenyl)phenyl derivative], in test [4], the “transporter selectivity (in words)” value is reported as “most selective compound described in the previous case”.
Consider `C=C(CC)c1ccc([C@H]2C[C@@H]3CC[C@H]([C@H]2C(=O)CC)N3C)cc1` [Example 7, (R)-8-Methyl-2β-propanoyl-3β-[4-(1-ethylethenyl)phenyl]-8-azabicyclo[3.2.1]octanem], for which, in test [1], affinity was put at a Ki of 1.13 ± 0.3 nM, the 5-HT/DA potency ratio was 20 and the 5-HT/NE potency ratio is on record as 1000. The compound also showed an inhibition constant Ki in test [2] of 1140 ± 606 nM. For the same compound, in test [3], the IC50 came to 22.1 ± 7.76 nM.
For `C=C(CC)c1ccc(C2CC3CCC(N3)C2C(=O)CC)cc1` [Example 8, (R)-2. beta.-Propanoyl-3β-[4-(1-ethylethenyl)phenyl]-8-azabicyclo[3.2.1]octane], in test [1], the inhibition constant Ki worked out at 0.194 ± 0.1 nM, the 5-HT/DA potency ratio is reported as 200 and the 5-HT/NE potency ratio worked out at 1790. Further, the Ki in test [2] was determined as 347 ± 54.8 nM. In test [3], this compound came in with an IC50 of 37.9 ± 12.9 nM.
The matching figures for `C/C=C/c1ccc([C@H]2C[C@@H]3CC[C@H]([C@H]2C(=O)CC)N3C)cc1` [Example 9, (R)-(E )-8-Methyl-2β-propanoyl-3β-[4-(1-propenyl)phenyl]-8-azabicyclo[3.2.1]octane]: 1.17 ± 0.46 nM, 1.5, 250, 292 ± 71.7 nM and 1.59 ± 0.66 nM.
The like results for `CC=Cc1ccc(C2CC3CCC(N3)C2C(=O)CC)cc1` [Example 10, (R)-(E )-2β-Propanoyl-3β-[4-(1-propenyl)phenyl]-8-azabicyclo[3.2.1]octane] were, in that order, 0.236 nM, 8, 108, 25.6 ± 9.6 nM and 1.94 ± 0.96 nM.
